Laboratory results taken from ChEMBL document CHEMBL1151153, “Chemistry of Sponges, VII. 11,19-Dideoxyfistularin 3 and 11-Hydroxyaerothionin, Bromotyrosine Derivatives from Pseudoceratina durissima” (J Nat Prod, 1990).
The source made the active and inactive calls.

Columns and labels:
Type in all cases: functional, organism-based
Staphylococcus aureus [1] = experiment: Antimicrobial activity against Staphylococcus aureus at 100 ug/disk
Bacillus subtilis [2] = experiment: Antimicrobial activity against Bacillus subtilis at 50 ug/disk
Candida albicans [3] = experiment: Antimicrobial activity against Candida albicans at 50 ug/disk
Staphylococcus aureus [4] = experiment: Antimicrobial activity against Staphylococcus aureus at 25 ug/disk
Bacillus subtilis [5] = experiment: Antimicrobial activity against Bacillus subtilis at 10 ug/disk
Candida albicans [6] = experiment: Antimicrobial activity against Candida albicans at 25 ug/disk

Measured: Activity

COC1=C(Br)[C@H](O)[C@@]2(C=C1Br)CC(C(=O)NCCCCNC(=O)C1=NO[C@]3(C=C(Br)C(OC)=C(Br)[C@@H]3O)C1)=NO2
active: Staphylococcus aureus [1] | Bacillus subtilis [2] | Candida albicans [3]

COC1=C(Br)[C@H](O)[C@@]2(C=C1Br)CC(C(=O)NCCCCCNC(=O)C1=NO[C@]3(C=C(Br)C(OC)=C(Br)[C@@H]3O)C1)=NO2
active: Staphylococcus aureus [1] | Bacillus subtilis [2] | Candida albicans [3]

COC1=C(Br)[C@@H](O)[C@]2(C=C1Br)CC(C(=O)NCCC(O)CNC(=O)C1=NO[C@]3(C=C(Br)C(OC)=C(Br)[C@@H]3O)C1)=NO2 (some centres not stated)
active: Staphylococcus aureus [1] | Bacillus subtilis [2] | Candida albicans [3]

COC1=C(Br)[C@@H](O)[C@]2(C=C1Br)CC(C(=O)NCCc1cc(Br)c(OCCCNC(=O)C3=NO[C@]4(C=C(Br)C(OC)=C(Br)[C@@H]4O)C3)c(Br)c1)=NO2
active: Staphylococcus aureus [4] | Bacillus subtilis [5] | Candida albicans [6]
